Activity data for one molecule are collected here from ChEMBL document CHEMBL4219196, “Next-generation small molecule therapies for heart failure: 2015 and beyond” (2018).

What all share (assay type): functional
Assay [1] concerns Homo sapiens. As to the kind of experiment: Reduction of cardiovascular events in patient with acute MI and coronary revascularization assessed as reduction in heart rate at 7.5 mg, po bid.
Assay [2] relates to Homo sapiens. Nature of the assay: Reduction of cardiovascular events in patient with coronary artery disease and left ventricular systolic dysfunction assessed as relative risk reduction at 7.5 mg, po bid. Set-up: scale not given: the % may be the effect or the level left.
In assay [3] the test system is Homo sapiens. As to the kind of experiment: Reduction of cardiovascular events in patient with severe chronic heart failure assessed as reduction in heart rate at 7.5 mg, po bid for 14 days.
The test system of assay [4] is Homo sapiens. Nature of the assay: Reduction of cardiovascular events in patient with severe chronic heart failure assessed as reduction in death at 7.5 mg, po bid for 14 days. Set-up: scale not given: the % may be the effect or the level left.
The test system of assay [5] is Homo sapiens. Nature of the assay: Reduction of cardiovascular events in patient with severe chronic heart failure and left ventricular systolic dysfunction assessed as relative risk reduction at 7.5 mg, po bid for 14 days. Set-up: scale not given: the % may be the effect or the level left.
The subject of assay [6] is Homo sapiens. Nature of the assay: Reduction of cardiovascular events in patient with acute MI and coronary revascularization assessed as reduction in death at 7.5 mg, po bid. Set-up: scale not given: the % may be the effect or the level left.

In the case of `COc1cc2c(cc1OC)CC(=O)N(CCCN(C)C[C@H]1Cc3cc(OC)c(OC)cc31)CC2` [IVABRADINE], the Activity was 12 bpm in assay [1]; “<=24%” in assay [2]; 15 bpm in assay [3]; 26% in assay [4]; 18% in assay [5]; 31% in assay [6].
